Measured values: US20260262643A1, “HERBICIDAL BENZOXAZINES” (FMC CORPORATION, priority 2022, published 2026)

What was measured:
[1] = system: rice; assay: Test D flooded paddy test; type: in vivo, Oryza sativa; details: 250 g ai/ha, applied to paddy water, visual rating after 13 to 14 days, scale 0 to 100 (0 no effect, 100 complete control)
In short: (§1)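 2-leaf plants; flood 3 cm above soil; compound dosed into paddy water; greenhouse 13–14 d; visual rating vs controls, 0–100 (100 = complete control); dash = not tested.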

[2] = system: barnyardgrass; assay: Test C postemergence; type: in vivo, Echinochloa crusgalli; details: 10 days, 0 to 100 scale (0 no effect, 100 complete control)
In short: (§2)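 Visual injury score, 0–100 (100 = complete control), taken 10 days after treatment relative to untreated controls. Pre: directed spray onto soil over sown seeds. Post: foliar spray at one- to two-leaf stage, 2–10 cm. Solvent/surfactant formulation; loam–sand soil; greenhouse.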

[3] = system: corn; assay: Test C preemergence; type: in vivo, Zea mays
In short: as §2

[4] = system: barnyardgrass; assay: Test C preemergence; type: in vivo, Echinochloa crusgalli
In short: as §2

[5] = system: sedge, umbrella; assay: Test D flooded paddy test; type: in vivo, Cyperus difformis; details: 250 g ai/ha, applied to paddy water, visual rating after 13 to 14 days, scale 0 to 100 (0 no effect, 100 complete control)
In short: as §1

[6] = system: corn; assay: Test C postemergence; type: in vivo, Zea mays; details: 10 days, 0 to 100 scale (0 no effect, 100 complete control)
In short: as §2

[7] = system: kochia; assay: Test C preemergence; type: in vivo, Bassia scoparia
In short: as §2

[8] = system: oat, wild; assay: Test C preemergence; type: in vivo, Avena fatua
In short: as §2

[9] = system: wheat; assay: Test C postemergence; type: in vivo, Triticum aestivum; details: 10 days, 0 to 100 scale (0 no effect, 100 complete control)
In short: as §2

[10] = system: kochia; assay: Test C postemergence; type: in vivo, Bassia scoparia; details: 10 days, 0 to 100 scale (0 no effect, 100 complete control)
In short: as §2

[11] = system: pigweed, palmer; assay: Test C preemergence; type: in vivo, Amaranthus palmeri
In short: as §2

[12] = system: horseweed; assay: Test C postemergence; type: in vivo, Erigeron canadensis; details: 10 days, 0 to 100 scale (0 no effect, 100 complete control)
In short: as §2

[13] = system: ducksalad; assay: Test D flooded paddy test; type: in vivo, Heteranthera limosa; details: 250 g ai/ha, applied to paddy water, visual rating after 13 to 14 days, scale 0 to 100 (0 no effect, 100 complete control)
In short: as §1

[14] = system: ragweed; assay: Test C postemergence; type: in vivo, Ambrosia artemisiifolia; details: 10 days, 0 to 100 scale (0 no effect, 100 complete control)
In short: as §2

[15] = system: ryegrass, Italian; assay: Test C postemergence; type: in vivo, Lolium multiflorum; details: 10 days, 0 to 100 scale (0 no effect, 100 complete control)
In short: as §2

[16] = system: blackgrass; assay: Test C postemergence; type: in vivo, Alopecurus myosuroides; details: 10 days, 0 to 100 scale (0 no effect, 100 complete control)
In short: as §2

[17] = system: galium; assay: Test C postemergence; type: in vivo, Galium aparine; details: 10 days, 0 to 100 scale (0 no effect, 100 complete control)
In short: as §2

[18] = system: ragweed; assay: Test C preemergence; type: in vivo, Ambrosia artemisiifolia
In short: as §2

[19] = system: blackgrass; assay: Test C preemergence; type: in vivo, Alopecurus myosuroides
In short: as §2

[20] = system: pigweed, palmer; assay: Test C postemergence; type: in vivo, Amaranthus palmeri; details: 10 days, 0 to 100 scale (0 no effect, 100 complete control)
In short: as §2

[21] = system: oat, wild; assay: Test C postemergence; type: in vivo, Avena fatua; details: 10 days, 0 to 100 scale (0 no effect, 100 complete control)
In short: as §2

[22] = system: green foxtail; assay: Test C preemergence; type: in vivo, Setaria viridis
In short: as §2

[23] = system: soybean; assay: Test C preemergence; type: in vivo, Glycine max
In short: as §2

[24] = system: green foxtail; assay: Test C postemergence; type: in vivo, Setaria viridis; details: 10 days, 0 to 100 scale (0 no effect, 100 complete control)
In short: as §2

[25] = system: soybean; assay: Test C postemergence; type: in vivo, Glycine max; details: 10 days, 0 to 100 scale (0 no effect, 100 complete control)
In short: as §2

[26] = system: wheat; assay: Test C preemergence; type: in vivo, Triticum aestivum
In short: as §2

[27] = system: barnyardgrass; assay: Test D flooded paddy test; type: in vivo, Echinochloa crus-galli; details: 250 g ai/ha, applied to paddy water, visual rating after 13 to 14 days, scale 0 to 100 (0 no effect, 100 complete control)
In short: as §1

[28] = system: ryegrass, Italian; assay: Test C preemergence; type: in vivo, Lolium multiflorum
In short: as §2

[29] = 500 g ai/ha, preemergence, 0 to 100 scale (0 no effect, 100 complete control)
[30] = Preemergence, 125 g ai/ha, 0 to 100 scale, 0 no effect, 100 complete control

CCOCC1CN(C(=O)c2cc(-n3cnc(C4CCC4)n3)ccc2OC)c2cccc(Cl)c2O1 (stereo not shown) [Compound 377]
60: Plant response rating, Soybean [23, 30] | Plant response rating, Ryegrass, Italian [28, 30]
100: Barnyardgrass plant response rating [4, 29] | Kochia plant response rating [7, 29] | Pigweed, Palmer plant response rating [11, 29] | Plant response rating, Pigweed, Palmer [11, 30] | Plant response rating, Galium ([17]; 500 g ai/ha, postemergence) | Plant response rating, Galium ([17]; Postemergence, 125 g ai/ha) | Plant response rating, Pigweed, Palmer ([20]; 500 g ai/ha, postemergence) | Foxtail, Green plant response rating [22, 29] | Plant response rating, Soybean ([25]; 500 g ai/ha, postemergence) | Plant response rating, Soybean ([25]; Postemergence, 125 g ai/ha)
40: Plant response rating, Barnyardgrass [4, 30] | Plant response rating, Ryegrass, Italian ([15]; Postemergence, 125 g ai/ha) | Plant response rating, Foxtail, Green ([24]; 500 g ai/ha, postemergence)
0: Plant response rating, Rice (Flood) [1] | Plant response rating, Corn [3, 30] | Plant response rating, Blackgrass ([16]; Postemergence, 125 g ai/ha) | Plant response rating, Blackgrass [19, 30] | Plant response rating, Oat, Wild ([21]; 500 g ai/ha, postemergence) | Plant response rating, Oat, Wild ([21]; Postemergence, 125 g ai/ha) | Plant response rating, Wheat [26, 30] | Plant response rating, Barnyardgrass (Flood) [27]
70: Plant response rating, Kochia [7, 30] | Ragweed plant response rating [18, 29] | Ryegrass, Italian plant response rating [28, 29]
15: Plant response rating, Ducksalad (Flood) [13]
90: Plant response rating, Kochia ([10]; 500 g ai/ha, postemergence) | Plant response rating, Kochia ([10]; Postemergence, 125 g ai/ha) | Plant response rating, Ragweed ([14]; 500 g ai/ha, postemergence) | Plant response rating, Pigweed, Palmer ([20]; Postemergence, 125 g ai/ha) | Soybean plant response rating [23, 29]
20: Corn plant response rating [3, 29] | Plant response rating, Corn ([6]; Postemergence, 125 g ai/ha) | Oat, Wild plant response rating [8, 29] | Plant response rating, Oat, Wild [8, 30] | Plant response rating, Wheat ([9]; Postemergence, 125 g ai/ha) | Plant response rating, Blackgrass ([16]; 500 g ai/ha, postemergence) | Blackgrass plant response rating [19, 29] | Plant response rating, Foxtail, Green ([24]; Postemergence, 125 g ai/ha) | Wheat plant response rating [26, 29]
50: Plant response rating, Barnyardgrass ([2]; 500 g ai/ha, postemergence) | Plant response rating, Horseweed ([12]; Postemergence, 125 g ai/ha) | Plant response rating, Ryegrass, Italian ([15]; 500 g ai/ha, postemergence) | Plant response rating, Foxtail, Green [22, 30]
30: Plant response rating, Barnyardgrass ([2]; Postemergence, 125 g ai/ha) | Plant response rating, Corn ([6]; 500 g ai/ha, postemergence) | Plant response rating, Wheat ([9]; 500 g ai/ha, postemergence) | Plant response rating, Horseweed ([12]; 500 g ai/ha, postemergence) | Plant response rating, Ragweed [18, 30]
55: Plant response rating, Sedge, Umbrella (Flood) [5]
80: Plant response rating, Ragweed ([14]; Postemergence, 125 g ai/ha)
